Reference: PMC8958505, “Discovery of Potential Neuroprotective Agents against Paclitaxel-Induced Peripheral Neuropathy” (Journal of Medicinal Chemistry, 2022)
Structures can show the parent of a compound that is named as a salt. Where two headings read alike, the source gives them in different places.

System: mouse primary DRG neurons
Assay: Neurite outgrowth assay of DRG neurons (image-based HCS) against paclitaxel-induced neurotoxicity
Assay type: cell-based
Conditions: for activation at 1 µM: Mus musculus, DRG neuron
Protocol: All these 19 compounds were then subjected to the neurite outgrowth assay of dorsal root ganglion (DRG) neurons paired with an image-based HCS to analyze whether they had neuroprotective potential. Quantification of neurite outgrowth under different regimens is shown in Figure 3, wherein DRG neurons incubated in 50 nM paclitaxel could cause 60% reduction in neurite outgrowth compared to the control (no drug treatment). […] Taken together, CN016 is selected as a promising lead for further development.
Primary cortical or DRG cells were fixed with 4% paraformaldehyde for 15 min following compound and paclitaxel treatment. After washing with PBS, the fixed cells were permeabilized with PBS containing 0.05% Triton X-100 for 20 min and then blocked with commercial blocking buffer (#GTX30963; GeneTex, USA) at room temperature for 1 h. Subsequently, the cortical cells were stained for the extending processes and synaptic puncta by using anti-MAP2 (#MBS502140, 1:500; Mybiosource, USA) and anti-synaptophysin (#ab32127, 1:500; Abcam, UK) overnight. DRG cells were stained for the neurite and neuron nucleus by using anti-β III tubulin (#D71G9, 1:600; Cell Signaling, USA) and anti-NeuN monoclonal antibody (#MAB377, 1:400; Millipore, USA) overnight. On the second day, the samples were washed for 30 min with wash buffer and incubated with secondary antibodies (Alexa-488, 647 1:600; Thermo Fisher, USA) and 4 μg/mL Hoechst 33258 (#94403-1ML, 1:100; Merck, USA) at room temperature for 1 h. In the initial experiments of screening the potential neuroprotective compound for CIPN, ImageXpress^Micro (IXM) high-content imaging system (Molecular Devices, USA) driven by MetaXpress software was used. Images of treated cells were automatically acquired by using a 10× objective. Twenty-one images per well were taken in each of three channels (DAPI, FITC, and Cy5) to create a whole view of the entire neural network. The integrity of the neural network was evaluated using TIF images by importing them into MetaXpress software for analysis using the module for multiparameter, such as Neurite Outgrowth, Cell Scoring, and Transfluor. Furthermore, the score of synaptogenesis was analyzed in AcuityXpress software (Molecular Devices, USA).

O=P(O)(O)CCN1CCC(Nc2cc(N3CCOCC3)nc(NCc3cn(CCCO)nn3)n2)CC1 [CN016, {2-[4-(2-{[1-(3-Hydroxy-propyl)-1H-[1,2,3]triazol-4-ylmethyl]-amino}-6-morpholin-4-yl-pyrimidin-4-ylamino)-piperidin-1-yl]-ethyl}-phosphonic Acid Hydrobromide Salt]
activation at 1 µM (Table 1, A: neurite outgrowth (% of control) of test compound 1000 nM + paclitaxel 50 nM, B: paclitaxel 50 nM alone, DRG neurons, read-out: Neuroprotection rate = (A-B)±S.E.M [%]): 21% | activation at 1 µM (Table S2, test compound 1000 nM + paclitaxel 50 nM minus paclitaxel 50 nM, read-out: Neuroprotection rate = (A-B) ± S.E.M [%]): 21 ± 0.77% | activation at 1 µM (supplementary CSV, test compound 1000 nM, read-out: A-B (A: neurite outgrowth (% of control) of test compound (1000 nM) + paclitaxel (50 nM), B: of paclitaxel (50 nM))): 21% | in vitro effective concentration (neurite outgrowth assay): 10 nM | protective efficacy against paclitaxel-induced neurotoxicity (in words) (pretreated, + 50 nM paclitaxel, DRG neurons): exhibited protective efficacy | increase of neurite length compared to the positive control (paclitaxel-treated alone) (pretreated, + 50 nM paclitaxel, Figure 3B): 24–28%
